Data as given in patent US11319299B2, “Substituted carboxamides as inhibitors of WDR5 protein-protein binding” (PROPELLON THERAPEUTICS INC., priority 2016, dated 2022).
pKd: −log10 of the molar value.

These compounds were tested against WDR5 (Homo sapiens (Human), UniProt P61964) (assay: Surface Plasmon Resonance (SPR) assay, KD and residence time). Conditions: surface plasmon resonance (SPR) assay; read-out: WDR5 binding affinity (KD).
Format: binding

| Compound | pKd |
| --- | --- |
| C[C@@H]1CN(c2cc(F)c(-c3cnc(N(C)C4CCOCC4)nc3)cc2NC(=O)c2c[nH]c(=O)cc2C(F)(F)F)C[C@H](C)N1C [Example 371, N-[4-fluoro-5-[2-[methyl(oxan-4-yl)amino]pyrimidin-5-yl]-2-[(3R,5S)-3,4,5-trimethylpiperazin-1-yl]phenyl]-6-oxo-4-(trifluoromethyl)-1H-pyridine-3-carboxamide] | 9.23 |
| C[C@@H]1CN(c2cc(F)c(C3=CCN(CC4CC4)CC3)cc2NC(=O)c2c[nH]c(=O)cc2C(F)(F)F)C[C@H](C)N1C [Example 151, N-[5-[1-(cyclopropylmethyl)-3,6-dihydro-2H-pyridin-4-yl]-4-fluoro-2-[(3R,5S)-3,4,5-trimethylpiperazin-1-yl]phenyl]-6-oxo-4-(trifluoromethyl)-1H-pyridine-3-carboxamide] | 8.13 |
| C[C@@H]1CN(c2cc(F)c(-c3ccc(N(C)C)nc3)cc2NC(=O)c2c[nH]c(=O)cc2C(F)(F)F)C[C@H](C)N1C [Example 142, N-[5-[6-(dimethylamino)pyridin-3-yl]-4-fluoro-2-[(3R,5S)-3,4,5-trimethylpiperazin-1-yl]phenyl]-6-oxo-4-(trifluoromethyl)-1H-pyridine-3-carboxamide] | 9.01 |
| C[C@@H]1CN(c2cc(F)c(C3=CCNC3)cc2NC(=O)c2c[nH]c(=O)cc2C(F)(F)F)C[C@H](C)N1C [Example 329, N-[5-(2,5-dihydro-1H-pyrrol-3-yl)-4-fluoro-2-[(3R,5S)-3,4,5-trimethylpiperazin-1-yl]phenyl]-6-oxo-4-(trifluoromethyl)-1H-pyridine-3-carboxamide] | 8.39 |
| C[C@@H]1CN(c2cc(F)c(C3=CCN(c4ncc(CO)cn4)CC3)cc2NC(=O)c2c[nH]c(=O)cc2C(F)(F)F)C[C@H](C)N1C [Example 394, N-[4-fluoro-5-[1-[5-(hydroxymethyl)pyrimidin-2-yl]-3,6-dihydro-2H-pyridin-4-yl]-2-[(3R,5S)-3,4,5-trimethylpiperazin-1-yl]phenyl]-6-oxo-4-(trifluoromethyl)-1H-pyridine-3-carboxamide] | 9.11 |
| C[C@@H]1CN(c2cc(F)c(-c3cnc(N4CCOCC4)nc3)cc2NC(=O)c2ccccc2)C[C@H](C)N1C [Example 74, N-[4-fluoro-5-(2-morpholin-4-ylpyrimidin-5-yl)-2-[(3R,5S)-3,4,5-trimethylpiperazin-1-yl]phenyl]benzamide] | 6.60 |

Continued, values first:

| pKd | Compound |
| --- | --- |
| 8.77 | C[C@@H]1CN(c2cc(F)c(-c3cnc(N(C)C)nc3)cc2NC(=O)c2ccc(F)cc2C(F)(F)F)C[C@H](C)N1C [Example 380, N-[5-[2-(dimethylamino)pyrimidin-5-yl]-4-fluoro-2-[(3R,5S)-3,4,5-trimethylpiperazin-1-yl]phenyl]-4-fluoro-2-(trifluoromethyl)benzamide] |
| 9.07 | C[C@@H]1CN(c2cc(F)c(-c3ccc(OCC4CC4)cc3)cc2NC(=O)c2c[nH]c(=O)cc2C(F)(F)F)C[C@H](C)N1C [Example 113, N-[5-[4-(cyclopropylmethoxy)phenyl]-4-fluoro-2-[(3R,5S)-3,4,5-trimethylpiperazin-1-yl]phenyl]-6-oxo-4-(trifluoromethyl)-1H-pyridine-3-carboxamide] |
| 6.93 | C[C@H]1CN(c2cc(F)c(-c3cnc(N4CCN(C)CC4)nc3)cc2NC(=O)c2ccc(F)cc2C(F)(F)F)C[C@H](C)N1C (racemic) [Example 382, 4-fluoro-N-[4-fluoro-5-[2-(4-methylpiperazin-1-yl)pyrimidin-5-yl]-2-[(3R,5R)-3,4,5-trimethylpiperazin-1-yl]phenyl]-2-(trifluoromethyl)benzamide] |
| 7.15 | C[C@@H]1CN(c2cc(F)c(-c3cnc(N4CCOCC4)nc3)cc2NC(=O)c2ccc(F)c(F)c2)C[C@H](C)N1C [Example 111, 3,4-difluoro-N-[4-fluoro-5-(2-morpholin-4-ylpyrimidin-5-yl)-2-[(3R,5S)-3,4,5-trimethylpiperazin-1-yl]phenyl]benzamide] |

Same assay, conditions: surface plasmon resonance (SPR); read-out: WDR5 binding affinity (KD)

| Compound | pKd |
| --- | --- |
| CN1CC[C@@H]2CN(c3cc(F)c(-c4cnc(N5CCOCC5)nc4)cc3NC(=O)c3c[nH]c(=O)cc3C(F)(F)F)C[C@@H]21 (stereo in doubt) [Example 477, N-[4-fluoro-5-(2-morpholin-4-ylpyrimidin-5-yl)-2-[(3aR,6aR)-1-methyl-2,3,3a,4,6,6a-hexahydropyrrolo[2,3-c]pyrrol-5-yl]phenyl]-6-oxo-4-(trifluoromethyl)-1H-pyridine-3-carboxamide] | 7.62 |
| C[C@@H]1CN(c2cc(F)c(-c3cc(C(=O)NC(C)(C)CC(C)(C)C)c(F)cc3F)cc2NC(=O)c2c[nH]c(=O)cc2C(F)(F)F)C[C@H](C)N1C [Example 626, N-[5-[2,4-difluoro-5-(2,4,4-trimethylpentan-2-ylcarbamoyl)phenyl]-4-fluoro-2-[(3R,5S)-3,4,5-trimethylpiperazin-1-yl]phenyl]-6-oxo-4-(trifluoromethyl)-1H-pyridine-3-carboxamide] | 8.28 |
| CC1CN(c2cc(F)c(-c3cnc(N4CCOCC4)s3)cc2NC(=O)c2cn(C)c(=O)cc2C(F)F)CCN1C (stereo in doubt) [Example 621, 4-(difluoromethyl)-N-[4-fluoro-5-(2-morpholin-4-yl-1,3-thiazol-5-yl)-2-[(3R)-3,4-dimethylpiperazin-1-yl]phenyl]-1-methyl-6-oxopyridine-3-carboxamide] | 8.32 |
| C[C@@H]1CN(c2cc(F)c(-c3cnn(CCN4CCOCC4)c3)cc2NC(=O)c2c[nH]c(=O)cc2C(F)(F)F)C[C@H](C)N1C [Example 716, N-[4-fluoro-5-[1-(2-morpholin-4-ylethyl)pyrazol-4-yl]-2-[(3R,5S)-3,4,5-trimethylpiperazin-1-yl]phenyl]-6-oxo-4-(trifluoromethyl)-1H-pyridine-3-carboxamide] | 8.62 |

Other lines, results leading:

| pKd | Compound |
| --- | --- |
| 8.52 | C[C@@H]1CN(c2cc(F)c(-c3ncc(C(=O)NCC4CC4)s3)cc2NC(=O)c2c[nH]c(=O)cc2C(F)(F)F)C[C@H](C)N1C [Example 496, N-(cyclopropylmethyl)-2-[2-fluoro-5-[[6-oxo-4-(trifluoromethyl)-1H-pyridine-3-carbonyl]amino]-4-[(3R,5S)-3,4,5-trimethylpiperazin-1-yl]phenyl]-1,3-thiazole-5-carboxamide] |
| 8.39 | C[C@@H]1CN(c2ccc(-c3cc(NC(=O)c4cn(C)c(=O)cc4C(F)F)c(N4CCN(C)[C@@H](C)C4)cc3F)cn2)C[C@H](C)O1 [Example 515, 4-(difluoromethyl)-N-[4-fluoro-5-[6-[(2R,6S)-2,6-dimethylmorpholin-4-yl]pyridin-3-yl]-2-[(3S)-3,4-dimethylpiperazin-1-yl]phenyl]-1-methyl-6-oxopyridine-3-carboxamide] |
| 8.51 | C[C@@H]1CN(c2cc(F)c(C3=CCCN(C(=O)OC4(C)CCC4)CC3)cc2NC(=O)c2c[nH]c(=O)cc2C(F)F)C[C@H](C)N1C [Example 729, (1-methylcyclobutyl) 4-[5-[[4-(difluoromethyl)-6-oxo-1H-pyridine-3-carbonyl]amino]-2-fluoro-4-[(3R,5S)-3,4,5-trimethylpiperazin-1-yl]phenyl]-2,3,6,7-tetrahydroazepine-1-carboxylate] |
| 9.14 | COc1cnc(N2CC=C(c3cc(NC(=O)c4c[nH]c(=O)cc4C(F)(F)F)c(N4C[C@@H](C)N(C)[C@@H](C)C4)cc3F)C2)nc1 [Example 437, N-[4-fluoro-5-[1-(5-methoxypyrimidin-2-yl)-2,5-dihydropyrrol-3-yl]-2-[(3R,5S)-3,4,5-trimethylpiperazin-1-yl]phenyl]-6-oxo-4-(trifluoromethyl)-1H-pyridine-3-carboxamide] |
